In article PMC12951568, “Identifying Structural Factors Governing the Photodynamic Activity of Phthalocyanines” (Journal of Medicinal Chemistry, 2026):
Where two headings read alike, the source gives them in different places.

Legend:
[1] = Absorption and fluorescence emission spectra in DMF; format: physicochemical; settings: in DMF
Method: (§1) An absorption spectrum of 2.475 mL of solvent (water, DMF, or PBS) was taken (i.e., absorption spectrum of baseline); then, 25 μL of stock solution was added to reach the final concentration of 1 μM in the cuvette, and the absorption and emission spectra were taken. Baseline of the solvent was subtracted from the obtained absorption spectrum to get the final absorption spectrum of the sample.

[2] = Fluorescence quantum yield, comparative method; format: physicochemical; settings: in DMF; ZnPc as reference
Method in brief: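 ΦF determined by the comparative method against ZnPc (ΦF 0.32 in THF), using integrated emission area, absorbance at the excitation wavelength and solvent refractive index. Q-band absorbance kept below 0.05; estimated error ± 15%.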

[3] = Quantum yield of singlet oxygen production, comparative method with DPBF scavenger; format: physicochemical; settings: in DMF, ZnPc as reference
Method in brief: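 Dye added from 100 μM DMF stock (or DMF/water, water); irradiated under stirring with xenon lamp through water filter and OG530 cut-off (>523 nm). DPBF decay followed at 415 nm; ΦΔ from ln(A0/At) slopes versus reference, normalised to absorbed light summed over 523–850 nm; triplicate means, ±10% error.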

[4] = Log P, partition between n-octanol and PBS; format: physicochemical; settings: partition coefficient between 1-octanol and PBS
Method in brief: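 Sample from 100 μM stock added to equal volumes of n-octanol and PBS, vortexed 5 min at rt, centrifuged. Each layer diluted into DMF and emission spectra recorded; log P taken as log of octanol/PBS integrated fluorescence ratio, mean of triplicates.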

[5] = Aggregation / monomerization in aqueous media (spectra in water and PBS); format: physicochemical; settings: 1 μM
Method: as §1

[6] = tested on: MCF-7 (human breast adenocarcinoma); assay: Photodynamic activity (phototoxicity, neutral red uptake) on MCF-7; format: cell-based; settings: 12 h incubation, Xe-lamp 15 min, λ > 570 nm, 11.2 J/cm^2; mean ± SD; t.w. = this work
[7] = tested on: HeLa (human cervical carcinoma); settings: 12 h incubation, Xe-lamp 15 min, λ > 570 nm, 11.2 J/cm^2; mean ± SD; determined previously under the same conditions at the same workplace and published; ref number not given; read-out: EC50 (nM) HeLa; cited from earlier work
[8] = tested on: SK-MEL-28 (human skin melanoma); design: method as in number not printed in Table 2; settings: 12 h incubation, Xe-lamp 15 min, λ > 570 nm, 11.2 J/cm^2; mean ± SD; determined previously under the same conditions at the same workplace and published; ref number not given; cited from earlier work
[9] = Fluorescence lifetime in DMF; format: physicochemical
From the text: 1 Photophysical Data of Investigated Derivatives in DMF ^a | column: τF1/ns; τF2/ns

[10] = tested on: MCF-7 (human breast adenocarcinoma); design: method as in number not printed in Table 2; settings: 12 h incubation, Xe-lamp 15 min, λ > 570 nm, 11.2 J/cm^2; mean ± SD; determined previously under the same conditions at the same workplace and published; ref number not given; cited from earlier work

| SMILES | ε, extinction coefficient [1] | λA, absorption maximum in the Q-band [1] | λF, fluorescence emission maximum [1] | ΦF, fluorescence quantum yield [2] | ΦΔ, quantum yield of singlet oxygen production [3] | Log P [4] | aggregation / monomeric state [5] | EC50 [6] | EC50 [7] | EC50 [8] | τF1, fluorescence lifetime (relative amplitude in brackets) [9] | EC50 [10] |
| --- | --- | --- | --- | --- | --- | --- | --- | --- | --- | --- | --- | --- |
| CC[N+](CC)(CC)CCSc1ccc(SCC[N+](CC)(CC)CC)c2c1C1=NC2=Nc2c3c(SCC[N+](CC)(CC)CC)ccc(SCC[N+](CC)(CC)CC)c3c3[n]2[Zn][n]2c(c4c(SCC[N+](CC)(CC)CC)ccc(SCC[N+](CC)(CC)CC)c4c2=NC2=NC(=N3)c3c(SCC[N+](CC)(CC)CC)ccc(SCC[N+](CC)(CC)CC)c32)=N1.[I-].[I-].[I-].[I-].[I-].[I-].[I-].[I-] [C9Zn] | 134 170 M^–1cm^–1 | 757 nm | 783 nm | 0.06 | 0.64 | –1.65 | did not sufficiently suppress aggregation | 210 ± 10 nM | 310 ± 121 nM | 220 ± 21 nM |  |  |
| Cc1cc(Cn2cc[n+](C)c2)c(Oc2c3c(c(C)c(C)[n+]2C)C2=Nc4c5c(Oc6c(Cn7cc[n+](C)c7)cc(C)cc6Cn6cc[n+](C)c6)[n+](C)c(C)c(C)c5c5[n]4[Zn][n]4c(c6c(C)c(C)[n+](C)c(Oc7c(Cn8cc[n+](C)c8)cc(C)cc7Cn7cc[n+](C)c7)c6c4=NC4=NC(=N5)c5c4c(C)c(C)[n+](C)c5Oc4c(Cn5cc[n+](C)c5)cc(C)cc4Cn4cc[n+](C)c4)=NC3=N2)c(Cn2cc[n+](C)c2)c1.[I-].[I-].[I-].[I-].[I-].[I-].[I-].[I-].[I-].[I-].[I-].[I-] [C11Zn] | 160 750 M^–1cm^–1 | 716 nm | 726 nm | 0.21 | 0.53 | –2.25 | full monomerization |  | 3.8 ± 0.2 nM | 3.8 ± 0.6 nM | 1.41 ns | 2.8 ± 0.1 nM |
